Where two headings read alike, the source gives them in different places.
Key:
[1] = tested on: tear flow; assay: Tear flow, phenol red thread (modified Schirmer's test) after ocular instillation; assay type: in vivo, mice; details: for Tear flow, length of red area of thread, Mean ± SEM: 0.07% solution, 0.05 mL twice daily, 45 min after 5th instillation, N=8; for Effect on tear flow: topical administration to the eyes of laboratory animals
Procedure: All instillations were performed twice daily and consisted of 0.05 mL. A total of five instillations were administered. Tear measurements were performed 45 minutes after the first drug instillation on Day 3, by carefully placing the bent end of a Zone-Quick phenol red impregnated cotton thread (FCI Ophthalmics, Pembrooke, Mass.) at the intercanthus of the eye and holding it in place for 30 seconds. After removal, the length of the red area of the thread was measured in millimeters. During tear measurements, all animals were lightly anesthetized with isoflurane in order to reduce movement and stress.

[2] = tested on: tear flow; details: U.S. Pat. No. 7,247,623; cited from earlier work
[3] = target: muscarinic receptors (antimuscarinic activity); details: Wolff et al. 2007; cited from earlier work
[4] = Maximal solubility; assay type: physicochemical
Excerpt: Ocular formulations of norketotifen to be used by individuals suffering from a dry eye syndrome may be hypotonic or isotonic. Thus, the acceptable osmolality may range from about 150 mOsm to about 350 mOsm.

[5] = tested on: histamine wheal response; assay: Antihistaminic activity in vivo: histamine-induced wheal after oral dosing; parameters: species or system rats
Procedure: Male rats (150-200 g) were starved overnight and twelve hours after dorsal depilation, the animals were orally pretreated with the test compound(s). Four dorsal test areas were marked with permanent ink, carefully avoiding the area closest to the spine. Exactly 60 min after the dosing of the test compound, two intradermal injections of histamine (50 microliter; 1.0 mg/ml of histamine di-HCl) were performed, one on each side on the back of the animal. Two intradermal injections of the vehicle for the histamine solution were also performed. Evans blue dye (20 mg/kg) was injected iv 1 minute prior to the intra-dermal injections of histamine and the histamine vehicle. Twenty minutes were allowed for the wheal response to fully develop, whereupon the animals were euthanized and the dorsal skin containing the intradermal wheals were deflected. The blue spotted areas were measured in square millimeters and the duplicate vehicle wheal responses were averaged. In vehicle-treated animals, the wheal area, on average, was increased by histamine by 98 mm^2. The inhibition was calculated in percent difference from this baseline value.

For `CN1CCC(=C2c3ccccc3CC(=O)c3sccc32)CC1.O=C(O)/C=C/C(=O)O` [KETOTIFEN HF, reference compound], the “Tear flow, length of red area of thread, Mean ± SEM” value [1] was 4.25 ± 0.250 mm.

For `CN1CCC(=C2c3ccccc3CC(=O)c3sccc32)CC1` [Ketotifen, reference compound], the “Effect on tear flow” value [1] was “not to increase tear flow”.

For `CN(C)CC/C=C1/c2ccccc2COc2ccc(CC(=O)O)cc21` [olopatadine], the “Effect on tear flow” value [2] is given as “reduce tear flow” and the IC50 [3] is given as 1740 nM.

In the case of `O=C(O)/C=C/C(=O)O.O=C1Cc2ccccc2C(=C2CCNCC2)c2ccsc21` [norketotifen hydrogen fumarate], the Maximal solubility ([4]; in saline) is reported as 4500 µg/mL, the Maximal solubility ([4]; in water) is reported as 2700 µg/mL and the “Tear flow, length of red area of thread, Mean ± SEM” value [1] is reported as 4.62 ± 0.263 mm.

For `O=C1Cc2ccccc2C(=C2CCNCC2)c2ccsc21` (racemic) [Norketotifen], the inhibition at 1 mg/kg ([5]; Rattus norvegicus, 1 mg/kg oral, versus vehicle histamine effect) was 6%, the inhibition at 10 mg/kg ([5]; Rattus norvegicus, 10 mg/kg oral, versus vehicle histamine effect) was 83% and the “Absorption after oral administration” value ([5]; rats, oral) was “well absorbed”. For the same compound, the “Statistical significance of effect in modified Schirmer's test” value ([1]; 45 minutes after the 5th treatment) was “statistically significant effects” and the “Effect on tear flow” value [1] was “increase tear flow”.
